Results on 58 compounds are retold here after patent US10183021B2, “sGC stimulators” (Ironwood Pharmaceuticals, Inc., priority 2013, dated 2019).

A value given as a limit tells only on which side of the number the result lay.

The target of experiment [1] is T1, soluble guanylate cyclase (sGC) (Homo sapiens (Human), UniProt Q02108+Q02153). Description: sGC-HEK-cGMP assay, new protocol with DETA-NONOate, LC/MS detection (Example 2C). It is filed as cell-based. Conditions: read-out: Absolute EC50 (uM) - binned.
T1 sequence (Q02153 whole entry): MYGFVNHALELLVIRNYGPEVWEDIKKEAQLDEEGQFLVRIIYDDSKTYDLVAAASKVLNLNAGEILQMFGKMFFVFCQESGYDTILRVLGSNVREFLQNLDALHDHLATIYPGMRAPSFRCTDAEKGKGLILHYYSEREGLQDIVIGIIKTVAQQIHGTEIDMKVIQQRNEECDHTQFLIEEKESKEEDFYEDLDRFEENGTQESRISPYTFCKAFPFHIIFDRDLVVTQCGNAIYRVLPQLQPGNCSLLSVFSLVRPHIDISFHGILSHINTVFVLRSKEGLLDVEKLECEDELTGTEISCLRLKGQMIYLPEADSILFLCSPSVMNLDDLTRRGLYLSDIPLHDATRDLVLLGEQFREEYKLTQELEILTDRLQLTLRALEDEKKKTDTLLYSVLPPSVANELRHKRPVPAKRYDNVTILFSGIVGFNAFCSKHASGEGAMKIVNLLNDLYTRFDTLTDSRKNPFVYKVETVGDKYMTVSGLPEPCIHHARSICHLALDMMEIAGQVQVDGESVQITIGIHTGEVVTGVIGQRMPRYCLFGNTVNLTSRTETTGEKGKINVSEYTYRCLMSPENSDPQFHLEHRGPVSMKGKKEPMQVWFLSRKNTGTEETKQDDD
T1 sequence (Q02108 whole entry): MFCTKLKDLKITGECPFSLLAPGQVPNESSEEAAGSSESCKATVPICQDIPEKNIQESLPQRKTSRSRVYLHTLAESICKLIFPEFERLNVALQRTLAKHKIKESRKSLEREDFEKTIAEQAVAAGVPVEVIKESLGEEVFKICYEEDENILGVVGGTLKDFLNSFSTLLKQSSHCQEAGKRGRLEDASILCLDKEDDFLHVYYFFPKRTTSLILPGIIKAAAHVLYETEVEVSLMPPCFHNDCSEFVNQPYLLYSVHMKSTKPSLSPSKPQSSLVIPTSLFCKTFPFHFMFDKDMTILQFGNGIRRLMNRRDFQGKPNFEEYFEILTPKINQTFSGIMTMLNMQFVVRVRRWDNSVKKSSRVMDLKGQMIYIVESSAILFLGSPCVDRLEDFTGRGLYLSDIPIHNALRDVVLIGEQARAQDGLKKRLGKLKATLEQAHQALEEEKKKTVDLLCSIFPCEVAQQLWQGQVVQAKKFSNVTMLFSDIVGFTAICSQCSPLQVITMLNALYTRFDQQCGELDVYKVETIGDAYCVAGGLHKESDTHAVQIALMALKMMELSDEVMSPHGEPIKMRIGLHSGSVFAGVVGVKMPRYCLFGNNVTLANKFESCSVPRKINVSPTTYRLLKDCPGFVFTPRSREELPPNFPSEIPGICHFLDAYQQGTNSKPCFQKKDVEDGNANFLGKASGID
In experiment [2] the target is T1, soluble guanylate cyclase (sGC). The experiment can be described thus: sGC-HEK-cGMP assay with SNP incubation, LC/MS detection (Example 2A). Particulars: HEK293 cells, 10 μM SNP, LC/MS detection; for Emax: 100% = BAY 41-2272 at 10 μM, read-out: HEK assay Emax - unconstrained (%). It is filed as cell-based. The gist of the method:
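HEK293 cells with endogenous sGC were pretreated 15 min at 37 °C with 0.5 mM IBMX, then exposed 10 min at 37 °C to compound (added from 0.0001–30 μM solutions) plus SNP (from 10 μM solution). After 0.1 M HCl lysis, cGMP was quantified by LC/MS against a standard curve.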

Where [3] appears, read: top of curve not fitted to 100%, read-out: HEK assay EC50 - unconstrained.
Where [4] appears, read: top of curve fitted to 100%, read-out: HEK assay EC50 - constrained.

For the compound `O=C(O)[C@H]1C[C@@H](C(F)(F)F)CCN1c1nc(-c2cc(-c3ccon3)n(Cc3ccccc3F)n2)ncc1F` (racemic) [Compound I-452], the EC50 in experiment [1] was less than 0.1 µM; in experiment [2] (setting [3]), 100 to 500 nM. The Emax in experiment [2] was 80 to 100%.

Take `O=C(O)[C@H]1C[C@H](C(F)(F)F)CCN1c1nc(-c2cc(-c3ccon3)n(Cc3ccccc3F)n2)ncc1F` (racemic) [Compound I-453]: the EC50 was in the range of 0.101 to 1 µM in experiment [1] and 1000 to 5000 nM in experiment [2] (setting [3]). For the same compound, the Emax in experiment [2] was in the range of 0 to 10%.

Consider `CC1CCCN1c1nc(-c2cc(-c3ccon3)n(Cc3ccccc3F)n2)ncc1F` (stereo not drawn) [Compound I-11], for which the EC50 in experiment [1] fell in the range of 0.101 to 1 µM; in experiment [2] (setting [4]) it was 500 to 1000 nM.

For `O=[N+]([O-])c1cnc(-c2cc(-c3ccon3)n(Cc3ccccc3F)n2)nc1N1CCOCC1` [Compound I-14], the EC50 is greater than 1 µM in experiment [1] and greater than 10000 nM in experiment [2] (setting [4]).

As for `COC1CCCN(c2nc(-c3cc(-c4ccon4)n(Cc4ccccc4F)n3)ncc2F)C1` (stereo not drawn) [Compound I-19], the EC50 in experiment [1] is less than 0.1 µM; in experiment [2] (setting [4]), 1000 to 5000 nM.

On to `Fc1ccccc1Cn1nc(-c2nccc(N3CCOCC3)n2)cc1-c1ccon1` [Compound I-24], for which the EC50 in experiment [1] was less than 0.1 µM; in experiment [2] (setting [3]), 100 to 500 nM. In experiment [2], the Emax is 40 to 60%.

As to `CC(C)(C)OC(=O)NC1CCN(c2nc(-c3cc(-c4ccon4)n(Cc4ccccc4F)n3)ncc2F)C1` (stereo not drawn) [Compound I-35], the figures for the EC50 in experiment [1] and in experiment [2] (setting [3]) were 0.101 to 1 µM and 500 to 1000 nM, respectively. In addition, the Emax in experiment [2] lay in the range of 40 to 60%.

Consider `Fc1ccccc1Cn1nc(-c2ncc(F)c(NC3CCCNC3)n2)cc1-c1ccon1` (stereo not drawn) [Compound I-39], for which the EC50 in experiment [1] was in the range of 0.101 to 1 µM; in experiment [2] (setting [3]) it was 5000 to 10000 nM. In addition, the Emax in experiment [2] lay in the range of 60 to 80%.

As for `O=C(O)C1CN(c2nc(-c3cc(-c4ccon4)n(Cc4ccccc4F)n3)ncc2F)C1` [Compound I-53], the EC50 fell in the range of 0.101 to 1 µM in experiment [1] and 1000 to 5000 nM in experiment [2] (setting [4]).

`CC1C(=O)NCCN1c1nc(-c2cc(-c3ccon3)n(Cc3ccccc3F)n2)ncc1F` (stereo not drawn) [Compound I-54]: the EC50 in experiment [1] is less than 0.1 µM; in experiment [2] (setting [4]), 100 to 500 nM.

In the case of `O=C(O)C1CCN1c1nc(-c2cc(-c3ccon3)n(Cc3ccccc3F)n2)ncc1F` (stereo not drawn) [Compound I-55], the EC50 in experiment [1] was 0.101 to 1 µM; in experiment [2] (setting [4]), 1000 to 5000 nM.

As to `O=C1CN(c2nc(-c3cc(-c4ccon4)n(Cc4ccccc4F)n3)ncc2F)CCN1` [Compound I-59], the EC50 in experiment [1] is 0.101 to 1 µM; in experiment [2] (setting [4]) it was greater than 10000 nM.

`CC(C(=O)Nc1nc(-c2cc(-c3ccon3)n(Cc3ccccc3F)n2)ncc1F)S(C)(=O)=O` (stereo not drawn) [Compound I-589]: the EC50 in experiment [1] was in the range of 0.101 to 1 µM.

With `NC(=O)C1CC(=O)N(c2nc(-c3cc(-c4ccon4)n(Cc4ccccc4F)n3)ncc2F)C1` (stereo not drawn) [Compound I-590], the EC50 in experiment [1] is greater than 1 µM.

`CCOC(=O)C1(C)CCN(c2nc(-c3cc(-c4ccon4)n(Cc4ccccc4F)n3)ncc2F)C1=O` (stereo not drawn) [Compound I-591]: the EC50 in experiment [1] fell in the range of 0.101 to 1 µM.

As for `O=C(CS(=O)(=O)c1ccccc1)Nc1ccnc(-c2cc(-c3ccon3)n(Cc3ccccc3F)n2)n1` [Compound I-592], the concentration for a half-maximal effect (EC50) in experiment [1] was greater than 1 µM.

As to `O=C(CS(=O)(=O)c1ccc(Cl)cc1)Nc1ccnc(-c2cc(-c3ccon3)n(Cc3ccccc3F)n2)n1` [Compound I-593], the EC50 in experiment [1] was greater than 1 µM.

Consider `CC1(C(=O)Nc2ccnc(-c3cc(-c4ccon4)n(Cc4ccccc4F)n3)n2)Cc2ccccc2S1(=O)=O` (stereo not drawn) [Compound I-594], for which, in experiment [1], the EC50 was greater than 1 µM.

Turning to `O=S(=O)(CCC(F)(F)F)Nc1cnc(-c2cc(-c3ccon3)n(Cc3ccccc3F)n2)nc1` [Compound I-595], in experiment [1], the EC50 lay in the range of 0.101 to 1 µM.

Consider `O=C(CN1C(=O)c2ccccc2C1=O)Nc1ccnc(-c2cc(-c3ccon3)n(Cc3ccccc3F)n2)n1` [Compound I-596], for which the EC50 in experiment [1] is greater than 1 µM.

With `O=C(Cc1ccccc1)NCC(=O)Nc1ccnc(-c2cc(-c3ccon3)n(Cc3ccccc3F)n2)n1` [Compound I-597], in experiment [1], the EC50 was greater than 1 µM.

In the case of `O=C(CNC(=O)OCc1ccccc1)Nc1ccnc(-c2cc(-c3ccon3)n(Cc3ccccc3F)n2)n1` [Compound I-598], the EC50 in experiment [1] was greater than 1 µM.

Turning to `O=C(CN1Cc2ccccc2C1=O)Nc1ccnc(-c2cc(-c3ccon3)n(Cc3ccccc3F)n2)n1` [Compound I-599], the EC50 in experiment [1] was greater than 1 µM.

Turning to `O=C(CN1CCOC1=O)Nc1ccnc(-c2cc(-c3ccon3)n(Cc3ccccc3F)n2)n1` [Compound I-600], the concentration giving a half-maximal response (EC50) in experiment [1] was 0.101 to 1 µM.

With `O=C(Cn1cnc2ccccc2c1=O)Nc1ccnc(-c2cc(-c3ccon3)n(Cc3ccccc3F)n2)n1` [Compound I-601], the EC50 in experiment [1] is greater than 1 µM.

Consider `O=C(CN1C(=O)c2ccccc2C1=O)NCC(=O)Nc1ccnc(-c2cc(-c3ccon3)n(Cc3ccccc3F)n2)n1` [Compound I-602], for which the EC50 in experiment [1] is greater than 1 µM.

With `COC(=O)NCC(=O)Nc1ccnc(-c2cc(-c3ccon3)n(Cc3ccccc3F)n2)n1` [Compound I-603], the concentration giving a half-maximal response (EC50) in experiment [1] lay within 0.101 to 1 µM.

In the case of `CC1(C(=O)O)CCN(c2nc(-c3cc(-c4ccon4)n(Cc4ccccc4F)n3)ncc2F)C1=O` (stereo not drawn) [Compound I-604], the EC50 in experiment [1] lay within 0.101 to 1 µM.

In the case of `CC1(C(=O)NC2CC2)CCN(c2nc(-c3cc(-c4ccon4)n(Cc4ccccc4F)n3)ncc2F)C1=O` (stereo not drawn) [Compound I-605], in experiment [1], the EC50 lay within 0.101 to 1 µM.

For the compound `CC1(C(N)=O)CCN(c2nc(-c3cc(-c4ccon4)n(Cc4ccccc4F)n3)ncc2F)C1=O` (stereo not drawn) [Compound I-606], the EC50 in experiment [1] lay within 0.101 to 1 µM.

Regarding `O=S(=O)(Cc1ccc(F)cc1)Nc1nc(-c2cc(-c3ccon3)n(Cc3ccccc3F)n2)ncc1F` [Compound I-607], the EC50 in experiment [1] lay within 0.101 to 1 µM.

`Fc1ccccc1Cn1nc(-c2ncc(F)c(NCc3nnc(C(F)(F)F)o3)n2)cc1-c1ccon1` [Compound I-608]: the EC50 in experiment [1] was less than 0.1 µM.

As for `O=S(=O)(CC(F)(F)F)Nc1nc(-c2cc(-c3ccon3)n(Cc3ccccc3F)n2)ncc1F` [Compound I-609], the EC50 in experiment [1] was greater than 1 µM.

Consider `O=S(=O)(Nc1nc(-c2cc(-c3ccon3)n(Cc3ccccc3F)n2)ncc1F)C1CC1` [Compound I-610], for which the EC50 in experiment [1] lay within 0.101 to 1 µM.

For `CCCS(=O)(=O)Nc1nc(-c2cc(-c3ccon3)n(Cc3ccccc3F)n2)ncc1F` [Compound I-611], the EC50 in experiment [1] lay in the range of 0.101 to 1 µM.

`O=C1CCS(=O)(=O)N1c1nc(-c2cc(-c3ccon3)n(Cc3ccccc3F)n2)ncc1F` [Compound I-612]: in experiment [1], the EC50 was less than 0.1 µM.

In the case of `O=S(=O)(Nc1nc(-c2cc(-c3ccon3)n(Cc3ccccc3F)n2)ncc1F)c1ccccc1` [Compound I-613], in experiment [1], the EC50 was 0.101 to 1 µM.

As to `COc1ccc(S(=O)(=O)Nc2nc(-c3cc(-c4ccon4)n(Cc4ccccc4F)n3)ncc2F)cc1OC` [Compound I-614], the EC50 in experiment [1] lay within 0.101 to 1 µM.

Turning to `O=C1C(O)CCN1c1nc(-c2cc(-c3ccon3)n(Cc3ccccc3F)n2)ncc1F` (stereo not drawn) [Compound I-615], the EC50 in experiment [1] is greater than 1 µM.

Take `CS(=O)(=O)CC(=O)Nc1nc(-c2cc(-c3ccon3)n(Cc3ccccc3F)n2)ncc1F` [Compound I-616]: the EC50 in experiment [1] was in the range of 0.101 to 1 µM.

Turning to `CCOC(=O)C1(C)C(=O)Nc2cnc(-c3cc(-c4ccon4)n(Cc4ccccc4F)n3)nc21` (stereo not drawn) [Compound I-617], in experiment [1], the EC50 is greater than 1 µM.

Turning to `CCOC(=O)C1(C)C(=O)Nc2nc(-c3cc(-c4ccon4)n(CCC(F)(F)F)n3)nc(N)c21` (stereo not drawn) [Compound I-618], the EC50 in experiment [1] was greater than 1 µM.

As for `CC1(C(N)=O)C(=O)Nc2nc(-c3cc(-c4ccon4)n(CCC(F)(F)F)n3)nc(N)c21` (stereo not drawn) [Compound I-619], in experiment [1], the EC50 was greater than 1 µM.

Consider `COC(=O)Nc1c(N)nc(-c2cc(-c3ccon3)n(Cc3ccccc3F)n2)nc1N` [Compound I-620], for which, in experiment [1], the EC50 was greater than 1 µM.

As for `COC(=O)N(C)c1c(N)nc(-c2cc(-c3ccon3)n(Cc3ccccc3F)n2)nc1N` [Compound I-621], in experiment [1], the EC50 is greater than 1 µM.

For the compound `C[C@@H](Nc1nc(-c2cc(-c3ccon3)n(Cc3ccccc3F)n2)ncc1F)c1nnc(C(F)(F)F)o1` [Compound I-622], the EC50 in experiment [1] is less than 0.1 µM.

As for `CC(=O)NNC(=O)C1(C)C(=O)Nc2nc(-c3cc(-c4ccon4)n(Cc4ccccc4F)n3)nc(N)c21` (stereo not drawn) [Compound I-623], the EC50 in experiment [1] is greater than 1 µM.

Take `O=S(=O)(Nc1nc(-c2cc(-c3ccon3)n(Cc3ccccc3F)n2)ncc1F)c1ccc(F)cc1` [Compound I-624]: the EC50 in experiment [1] lay in the range of 0.101 to 1 µM.

As for `O=S(=O)(Nc1nc(-c2cc(-c3ccon3)n(Cc3ccccc3F)n2)ncc1F)c1cccnc1` [Compound I-625], the EC50 in experiment [1] was greater than 1 µM.

Turning to `CS(=O)(=O)CCC(Nc1nc(-c2cc(-c3ccon3)n(CCC(F)(F)F)n2)ncc1F)C(F)(F)F` (stereo not drawn) [Compound I-626], the EC50 in experiment [1] was greater than 1 µM.

For the compound `NC(=O)C(O)(CNc1ccnc(-c2cc(-c3ccon3)n(Cc3ccccc3F)n2)n1)C(F)(F)F` (stereo not drawn) [Compound I-627], in experiment [1], the EC50 was in the range of 0.101 to 1 µM.

Consider `O=S1(=O)Cc2nc(-c3cc(-c4ccon4)n(Cc4ccccc4F)n3)nc(O)c2C1` [Compound I-628], for which the EC50 in experiment [1] is greater than 1 µM.

As for `CN(c1nc(-c2cc(-c3ccon3)n(Cc3ccccc3F)n2)ncc1F)S(C)(=O)=O` [Compound I-629], in experiment [1], the EC50 is greater than 1 µM.

`COC(=O)N(C)c1cnc(-c2cc(-c3ccon3)n(Cc3ccccc3F)n2)nc1` [Compound I-630]: the EC50 in experiment [1] is greater than 1 µM.

Consider `Oc1n[nH]c2c1CN(c1nc(-c3cc(-c4ccon4)n(Cc4ccccc4F)n3)ncc1F)CC2` [Compound I-631], for which, in experiment [1], the EC50 is less than 0.1 µM.

As for `Nc1nc(-c2cc(-c3ccon3)n(Cc3ccccc3F)n2)nc2c1CS(=O)(=O)C2` [Compound I-632], the EC50 in experiment [1] was greater than 1 µM.

`OCC1Cn2c(nnc2C(F)(F)F)CN1c1nc(-c2cc(-c3ccon3)n(Cc3ccccc3F)n2)ncc1F` (stereo not drawn) [Compound I-633]: the EC50 in experiment [1] is less than 0.1 µM.

Consider `CC(O)(CNc1nc(-c2cc(-c3ccon3)n(Cc3ccccc3F)n2)ncc1F)C(F)(F)F` (stereo not drawn) [Compound I-634], for which the EC50 in experiment [1] is less than 0.1 µM.
